US8475848B2, “Cosmetic composition having anti-radical properties and corresponding application method” (Yves Saint Laurent Parfums, priority 2007, dated 2013)

Columns and labels:
[1] = DPPH test on pure extracts (reduction of DPPH, optical density); type: biochemical; settings: for % control (OD) / Activity (DPPH reduction): DPPH test
Text: (§1) The activity of the pure extracts was studied by means of two biochemical tests: one was based on the reduction of 2,2-diphenyl-1-picrylhydrazyl (DPPH) by the anti-oxidants, and the other was based on the measurement of hydrogen peroxide (H2O2) in the reaction media. H2O2 is trapped by a specific reagent, “AmplexRed”. 2,2-diphenyl-1-picrylhydrazyl (DPPH) is a stable radical compound that is reduced to 1,1-diphenyl-2-picrylhydrazine by anti-oxidants. This reduction is followed by a color change in the DPPH solution (optical density measurement).
(§2) The pure extracts as well as the anti-oxidant references (α-tocopherol and BHA: butylated hydroxyanisole for DPPH, BHA alone for AmplexRed) were dissolved in ethanol. Controls using ethanol alone were produced in order to verify the absence of interference of this solvent.
The products for this test were tested starting from a concentration of 1 mg/ml in a power of ten series. The alpha-tocopherol positive control was tested at a concentration of 0.1 μM [micromolar] and the BHA was tested at a concentration of 50 μM.

irradiated skin explants = assay: Lipid peroxidation test on irradiated skin explants, extracts associated with an insoluble mineral substrate dispersed in carnation oil; type: cell-based; settings: reference (positive control), 5 mg/cm^2 topical, UVA+B
Description: Study of the activity of extracts associated with an insoluble mineral substrate dispersed in carnation oil were carried out using a lipid peroxidation test on irradiated skin explants. This test, which was carried out by applying the products topically, meant that the effects of non-hydrosoluble extracts could be studied in vitro.
Upon receipt, the skin explants were cut and placed in culture.
The test products or the reference (positive control=BHA) were then applied to the surface of the explants in a quantity of 5 mg/cm^2 [milligrams/square centimeter] and the explants were placed in an incubator for 24 h [hours] at 37° C. in the presence of 95% air and 5% CO2.
After incubation and washing, the explants for each series were exposed to irradiation using ultraviolet A and B (UVA+B) radiation. Irradiation was carried out using a SOL500 Sun Simulator lamp with an H2 filter and the exposure conditions were as follows: • UVA+B filter: • UVA: power 11.5 mW/cm^2 [milliwatt/square centimeter] i.e. 678.6 mJ/cm^2/minute [millijoule/square centimeter/minute]; • UVB: power 0.78 mW/cm^2, i.e. 47.1 mJ/cm^2/minute; • Irradiation period: 21 minutes; • i.e. approximately 1 J/cm^2 of UVB and 14 J/cm^2 of UVA.
Three other untreated control explants were kept away from the light. […]
The epidermis was then extracted and the viability of the cells was evaluated using MTT reduction. […]

[2] = H2O2/AmplexRed test on pure extracts (fluorescence); type: biochemical
Text: as §1
AmplexRed is a compound which reacts in a stoichiometric manner with H2O2, producing a fluorescent red compound, resofurin, which can be measured by fluorescence. This test can detect small quantities of H2O2.
as §2
The products for this test were tested starting from a concentration of 1 μg/ml in a power of ten series. The BHA positive control was tested at concentrations of 50 μM and 500 μM.

Compound | % control (OD) ([1]; 0.1 μM) [%] | Activity (DPPH reduction) ([1]; 0.1 μM) | reduction of DPPH (in words) ([1]; reference, 0.1 μM) | production of lipid peroxides after irradiation (in words) (irradiated skin explants) | % control (OD) ([1]; 50 μM) [%] | Activity (DPPH reduction) ([1]; 50 μM) | % control (fluorescence intensity) ([2]; 50 μM) [%] | Activity (reduction of free H2O2) ([2]; 50 μM) | % control (fluorescence intensity) ([2]; 500 μM) [%] | Activity (reduction of free H2O2) ([2]; 500 μM)
Cc1c(C)c2c(c(C)c1O)CC[C@@](C)(CCC[C@H](C)CCC[C@H](C)CCCC(C)C)O2 [Tocopherol, α-tocopherol] | 9 | ++ (large reduction more than 50%) | clearly reduced the DPPH |  |  |  |  |  |  | 
COc1ccc(O)c(C(C)(C)C)c1 [BHA, butylated hydroxyanisole] |  |  |  | greatly reduced the production of lipid peroxides | 74 | +/− (25% reduction) | 38 | ++ (strong reduction more than 50%) | 34 | ++ (strong reduction more than 50%)
